In ChEMBL document CHEMBL5724796, “Tm Shift (DSF) assay results for EUbOPEN Chemogenomics Library” (2024) one finds ΔTm data, which are given here for 52 molecules.

Residues, ends and D or L forms follow the SMILES beside them. *: point of attachment. Boc = CC(C)(C)OC(=O)*; CH2Cl = ClC*

The target of test [1] is T1, Peregrin (Homo sapiens) (UniProt P55201).
T1 sequence (whole entry): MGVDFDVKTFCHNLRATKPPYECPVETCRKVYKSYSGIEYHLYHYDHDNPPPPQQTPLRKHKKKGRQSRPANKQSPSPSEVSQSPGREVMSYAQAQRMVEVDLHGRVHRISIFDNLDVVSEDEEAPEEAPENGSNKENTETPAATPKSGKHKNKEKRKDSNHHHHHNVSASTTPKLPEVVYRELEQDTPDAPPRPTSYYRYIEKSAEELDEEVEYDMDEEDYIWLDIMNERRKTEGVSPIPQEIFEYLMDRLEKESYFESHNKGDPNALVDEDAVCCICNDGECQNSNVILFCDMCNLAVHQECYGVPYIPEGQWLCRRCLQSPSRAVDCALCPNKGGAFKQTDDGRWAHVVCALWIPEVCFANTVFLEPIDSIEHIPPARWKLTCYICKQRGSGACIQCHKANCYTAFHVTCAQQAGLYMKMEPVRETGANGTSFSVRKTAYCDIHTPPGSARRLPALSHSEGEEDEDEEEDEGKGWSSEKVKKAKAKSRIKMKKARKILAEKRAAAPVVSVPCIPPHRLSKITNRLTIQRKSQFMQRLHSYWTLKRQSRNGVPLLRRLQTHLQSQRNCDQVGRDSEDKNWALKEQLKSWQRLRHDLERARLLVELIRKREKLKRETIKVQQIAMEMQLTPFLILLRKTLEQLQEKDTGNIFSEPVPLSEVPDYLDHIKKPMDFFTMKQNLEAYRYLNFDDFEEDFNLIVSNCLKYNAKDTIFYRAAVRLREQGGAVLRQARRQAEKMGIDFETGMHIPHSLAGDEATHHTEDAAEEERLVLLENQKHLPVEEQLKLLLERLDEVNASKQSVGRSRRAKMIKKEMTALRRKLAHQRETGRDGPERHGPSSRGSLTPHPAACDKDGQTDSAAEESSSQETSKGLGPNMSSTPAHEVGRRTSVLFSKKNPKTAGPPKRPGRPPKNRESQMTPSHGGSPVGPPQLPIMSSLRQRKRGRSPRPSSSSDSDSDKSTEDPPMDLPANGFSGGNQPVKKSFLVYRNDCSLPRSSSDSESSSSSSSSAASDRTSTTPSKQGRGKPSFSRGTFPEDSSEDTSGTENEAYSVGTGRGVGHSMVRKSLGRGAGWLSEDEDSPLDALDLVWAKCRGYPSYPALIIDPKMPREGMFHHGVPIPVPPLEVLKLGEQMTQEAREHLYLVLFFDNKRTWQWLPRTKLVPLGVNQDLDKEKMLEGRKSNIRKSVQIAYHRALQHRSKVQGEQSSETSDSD
To be noted: Compound concentration 20.0 uM.

Test [2] addresses Fibroblast growth factor receptor 2 (Homo sapiens) (UniProt P21802). To be noted: Compound concentration 20.0 uM.
Description: Thermal Shift Assay. Domain: start/stop: T457-E768

Fibroblast growth factor receptor 2 (Homo sapiens), sequence (P21802 22-821 limits assumed): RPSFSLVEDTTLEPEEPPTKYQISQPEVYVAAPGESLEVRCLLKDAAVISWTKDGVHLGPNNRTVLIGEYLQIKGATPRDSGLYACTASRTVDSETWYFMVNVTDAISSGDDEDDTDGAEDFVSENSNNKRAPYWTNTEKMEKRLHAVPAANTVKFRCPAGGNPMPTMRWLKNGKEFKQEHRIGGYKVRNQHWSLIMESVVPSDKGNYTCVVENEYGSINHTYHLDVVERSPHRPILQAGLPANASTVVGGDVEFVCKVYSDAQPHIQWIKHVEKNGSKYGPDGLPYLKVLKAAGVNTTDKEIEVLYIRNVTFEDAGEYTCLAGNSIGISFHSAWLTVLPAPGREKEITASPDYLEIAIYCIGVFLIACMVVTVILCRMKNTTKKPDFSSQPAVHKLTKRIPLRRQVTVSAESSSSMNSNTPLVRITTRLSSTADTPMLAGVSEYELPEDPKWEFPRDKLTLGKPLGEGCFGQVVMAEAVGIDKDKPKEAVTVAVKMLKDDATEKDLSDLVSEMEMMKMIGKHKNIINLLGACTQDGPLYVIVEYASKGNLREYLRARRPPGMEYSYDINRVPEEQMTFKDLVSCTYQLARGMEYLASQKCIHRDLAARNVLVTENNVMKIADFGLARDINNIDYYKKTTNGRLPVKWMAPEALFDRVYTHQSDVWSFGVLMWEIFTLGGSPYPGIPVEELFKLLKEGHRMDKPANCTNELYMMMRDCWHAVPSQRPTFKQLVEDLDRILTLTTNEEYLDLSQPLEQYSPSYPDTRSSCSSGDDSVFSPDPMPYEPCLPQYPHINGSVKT

With `CN1CCc2c(n(Cc3ccc(C(=O)NO)cc3)c3ccccc23)C1`, the figures for the ΔTm in test [1] and in test [2] were -0.68 °C and -3.78 °C, respectively.

As for `CC(=O)N[C@@H](Cc1ccccc1)C(=O)N[C@@H](CC(C)C)C(=O)N[C@H](C(=O)N[C@@H](CC(=O)O)C(=O)CCl)[C@@H](C)O` (Ac-FLTD-CH2Cl), the figures for the ΔTm in test [1] and in test [2] were -1.18 °C and 0.77 °C, respectively.

`O=C1COc2c(cccc2[C@@H](O)CNCCN(C(=O)CCNCCc2ccc(Cl)c(Cl)c2)C2CCCCC2)N1`: the thermal shift (ΔTm) (usually the change in melting temperature against a reference sample) in test [1] was -1.84 °C; in test [2], 0.36 °C.

Regarding `CC(C)(C)OC(=O)N1CCC[C@H]1C(=O)N1CCC[C@H]1C=O` (Boc-Pro-Pro-aldehyde), the values for the ΔTm in test [1] and in test [2] were -0.14 °C and 0.01 °C, respectively.

Take `O=C(NO)c1cccc(C(=O)NCCc2ccccc2)c1`: the shift in melting temperature (ΔTm) in test [1] was -0.84 °C; in test [2] it was 0.41 °C.

On to `O=C(NCC1(c2nc(-c3ccccc3)cs2)CCOCC1)c1cccc(-c2noc(C(F)(F)F)n2)c1`, for which the ΔTm is -4.49 °C in test [1] and -0.34 °C in test [2].

On to `C[C@H](c1nc2c(cnn2C2CCOCC2)c(=O)[nH]1)N1CC(Oc2ccccc2)C1`, for which the ΔTm in test [1] was 2.25 °C; in test [2], -0.05 °C.

Regarding `CS(=O)(=O)N1CCN(C(=O)c2cnc3ccc(F)cc3c2-c2ccc(C3(C#N)CC3)cc2)CC1`, the ΔTm in test [1] came out at 0.38 °C; in test [2] it was 0.1 °C.

As for `CCc1oc2ccccc2c1C(=O)c1cc(Br)c(O)c(Br)c1`, the ΔTm in test [1] is -11 °C; in test [2] it was -1.86 °C.

As to `O=C(CN1CCN(C(=O)c2ccco2)CC1)Nc1cc(C(F)(F)F)ccc1Cl`, the values for the ΔTm in test [1] and in test [2] were -0.04 °C and 0.27 °C, respectively.

`COc1ccc(-c2ccc3c(c2)COC3=O)n2nc(C3(C(=O)OCC(C)C)CC3)nc12`: the ΔTm in test [1] was 0.76 °C; in test [2] it was 0.71 °C.

As for `O=c1c2nnc(C3CCOCC3)n2cc(Br)n1CC1CCCC1`, the ΔTm is -0.41 °C in test [1] and -0.26 °C in test [2].

As to `O=[N+]([O-])c1cc(O)c(O)c([N+](=O)[O-])c1`, the values for the ΔTm in test [1] and in test [2] were 2.24 °C and 0.52 °C, respectively.

For `NC(=O)c1cnc(N[C@@H]2CCCC[C@@H]2N)nc1Nc1cccc(-n2nccn2)c1`, the shift in melting temperature (ΔTm) was -1.09 °C in test [1] and 0.98 °C in test [2].

Consider `N=C(N)N/N=C/c1cccc(Cl)c1Cl`, for which the ΔTm is -0.71 °C in test [1] and 0.87 °C in test [2].

Take `OC1CN=C2c3ccn([C@@H]4O[C@H]([C@H](O)c5ccc(Cl)cc5)[C@@H](O)[C@H]4O)c3N=CN21` (some centres undefined): the ΔTm in test [1] was -0.74 °C; in test [2] it was 0.52 °C.

For `CNCc1ccc(-c2[nH]c3cc(F)cc4c3c2CCNC4=O)cc1`, the ΔTm in test [1] is 3.14 °C; in test [2], -0.11 °C.

Take `COC1CCN(C(=O)c2cc(Cc3n[nH]c(=O)c4ccccc34)ccc2F)CC1`: the ΔTm is 1.51 °C in test [1] and -0.21 °C in test [2].

For `C[C@H](NC(=O)[C@H](Cc1ccccc1)NC(=O)OCc1ccccc1)C(=O)CF`, the ΔTm in test [1] is -1.31 °C; in test [2], 0.14 °C.

With `O=C(c1cc(Cc2n[nH]c(=O)c3ccccc23)ccc1F)N1CCn2nc(C(F)(F)F)nc2C1`, the ΔTm in test [1] is 0.87 °C; in test [2], -0.57 °C.

For `CC(C)c1cnc(CSc2cnc(NC(=O)C3CCNCC3)s2)o1`, the ΔTm in test [1] is -1.67 °C; in test [2] it was 0.73 °C.

In the case of `Nc1cc2c3c(c1)C(c1ccccc1)=N[C@@H](NC(=O)c1cccnc1)C(=O)N3CC2`, the ΔTm came out at 0.71 °C in test [1] and 0.08 °C in test [2].

For the molecule `Nc1ccccc1NC(=O)CCCCCC(=O)Nc1ccccc1`, the results for the ΔTm in test [1] and in test [2] were -1.41 °C and 0.58 °C, respectively.

Consider `COc1cn(-c2ccc(-n3cccn3)cc2F)nc(-c2ccnn2-c2ccccc2)c1=O`, for which the ΔTm in test [1] stood at 1.13 °C; in test [2], 0.54 °C.

`O=C(NCc1ccc(F)cc1)C1CCN(S(=O)(=O)c2cc(Cl)cc(Cl)c2)CC1`: the ΔTm in test [1] was 2.64 °C; in test [2] it was 0.75 °C.

As for `CCNC(=O)c1cc2c(-c3cc(C(C)(C)O)ccc3Oc3c(C)cc(F)cc3C)cn(C)c(=O)c2[nH]1`, the shift in melting temperature (ΔTm) is 1.94 °C in test [1] and 0.28 °C in test [2].

In the case of `O=C(COc1ccc(-c2oc3cc(O)c(C(=O)O)cc3c2C#Cc2cccc(Cl)c2)cc1)NC1CC1`, the ΔTm in test [1] is -1.44 °C; in test [2], 0.52 °C.

As to `N#Cc1ccc(-c2c3n(c4cccnc24)CCN(C2CC2)C3=O)cc1F`, the ΔTm in test [1] is -0.31 °C; in test [2], -0.59 °C.

In the case of `CC(=O)N[C@@H](Cc1ccc(O)cc1)C(=O)N[C@H](C(=O)N[C@@H](C)C(=O)N[C@H](C=O)CC(=O)O)C(C)C`, the ΔTm was -1.25 °C in test [1] and 0.54 °C in test [2].

`CC(=O)N[C@@H](CC(C)C)C(=O)N[C@@H](CCC(=O)O)C(=O)N[C@H](C(=O)N[C@H](C=O)CC(=O)O)C(C)C` (Ac-LEVD-aldehyde): the ΔTm is -1.25 °C in test [1] and 0.88 °C in test [2].

For the molecule `CC(=O)N[C@H](C(=O)N[C@@H](CC(=O)O)C(=O)N[C@H](C(=O)N[C@@H](C)C(=O)N[C@H](C=O)CC(=O)O)C(C)C)C(C)C` (Ac-VDVAD-aldehyde), the ΔTm in test [1] is -0.92 °C; in test [2], -0.83 °C.

On to `CCS(=O)(=O)N1CCC([C@@H](C)n2c(C)c(C(=O)NCc3c(OC)cc(C)[nH]c3=O)c3ccccc32)CC1`, for which the results for the ΔTm in test [1] and in test [2] were -1.1 °C and 0.02 °C, respectively.

On to `COc1cc2c(NC3CCN(C)CC3)nc(N3CCCN(C)CC3)nc2cc1OCCCN(C)C`, for which the results for the ΔTm in test [1] and in test [2] were -1.21 °C and 0.15 °C, respectively.

`CC1(NC(=O)COc2cccc(-c3nc4c(c(Nc5ccc(-c6cn[nH]c6)cc5)n3)CN(C3CCC3)CC4)c2)CC1`: the ΔTm is 1.53 °C in test [1] and -0.36 °C in test [2].

Consider `Cn1nc2c(=O)n(CC3(O)CCN(C(=O)C[C@H](c4ccccc4)C(F)(F)F)CC3)cnc2c1-c1ccc(CN)cc1`, for which the ΔTm was 1.89 °C in test [1] and -0.7 °C in test [2].

For the molecule `Fc1ccc(CNc2ncnc3ccc(F)cc23)cc1`, the values for the ΔTm in test [1] and in test [2] were 1.26 °C and -0.12 °C, respectively.

As to `CC/C(=C(/c1ccc(/C=C/C(=O)O)cc1)c1ccc2[nH]ncc2c1)c1ccc(F)cc1Cl`, the values for the ΔTm in test [1] and in test [2] were 0 °C and -5.4 °C, respectively.

As for `Cc1ccc(N2C(=O)/C(=C/C=C/c3ccco3)C(=O)NC2=S)cc1Cl`, the values for the ΔTm in test [1] and in test [2] were -2.31 °C and -1.72 °C, respectively.

As to `O=C1Nc2ccccc2C2(CCN(CC(Cc3ccccc3)Nc3nc4ccc(F)cc4s3)CC2)N1` (centres undefined), the shift in melting temperature (ΔTm) in test [1] turned out to be 0.27 °C; in test [2], 2.21 °C.

With `Cc1cc(S(C)(=O)=O)c(S(C)(=O)=O)cc1C(=O)NC(=N)N`, the ΔTm in test [1] came out at 2.74 °C; in test [2], 0 °C.

Consider `O=C(O)/C(S)=C/c1c[nH]c2ccc(F)cc12`, for which the ΔTm in test [1] was -0.77 °C; in test [2] it was 0.66 °C.

As to `Nc1c[nH]c(=O)c2cc(-c3ccccc3)sc12`, the values for the ΔTm in test [1] and in test [2] were -1.11 °C and 0.44 °C, respectively.

Consider `CCN(c1cc(C#CCN2CCOCC2)cc(C(=O)NCc2c(C)cc(C)[nH]c2=O)c1C)[C@H]1CC[C@H](N(C)CCOC)CC1`, for which the ΔTm in test [1] was -1.63 °C; in test [2] it was 0.42 °C.

As to `Cc1cc(C)nc(SCC(=O)Nc2ncc(Cc3cccc(OCc4cn(Cc5ccccc5)nn4)c3)s2)n1`, the figures for the ΔTm in test [1] and in test [2] were -1.46 °C and -10.7 °C, respectively.

With `Cc1cc(Cn2c(=O)n(Cc3cnc(C)s3)c(=O)c3cc(S(=O)(=O)NC4(C)CC4)ccc32)n(C)n1`, the figures for the ΔTm in test [1] and in test [2] were -1.12 °C and 0.47 °C, respectively.

As for `CCC(NC(=O)C(CC(C)C)NC(=O)OCc1ccccc1)C(=O)C(=O)NCCCN1CCOCC1` (centres undefined), the values for the ΔTm in test [1] and in test [2] were -1.22 °C and 1.24 °C, respectively.

Consider `C[C@]12CCCN1CC1=NNC(=O)c3cc(F)cc4[nH]c2c1c34`, for which the shift in melting temperature (ΔTm) is -1.02 °C in test [1] and 0.9 °C in test [2].

In the case of `CC(C)[C@H](NC(=O)OCc1ccccc1)C(=O)NC(CC(=O)O)C(=O)CF` (some centres undefined), the thermal shift (ΔTm) in test [1] was -1.71 °C; in test [2], 0.74 °C.

With `CCc1c(-c2ccccc2)c(-c2ccccc2)nn1-c1ccccc1-c1cccc(OCC(=O)O)c1`, the ΔTm in test [1] was -3.01 °C; in test [2], -1.61 °C.

Consider `Cc1nn2c(nc(O)c3cccnc32)c1C#N`, for which the values for the ΔTm in test [1] and in test [2] were 0.03 °C and -0.24 °C, respectively.

Consider `CCN(C(=O)c1cc(F)ccc1Oc1cncnc1N1CC2(CCN(C[C@H]3CC[C@H](NS(=O)(=O)CC)CC3)CC2)C1)C(C)C`, for which the thermal shift (ΔTm) in test [1] was found to be 0.45 °C; in test [2], 0.21 °C.

As to `O=C(Nc1c(Cl)cncc1Cl)c1ccc(OC(F)F)c(OCC2CC2)c1`, the ΔTm was found to be 0.52 °C in test [1] and 0.95 °C in test [2].
